Source: patent US20060079453A1, “Hla binding peptides and their uses” (priority 2002, published 2006)
Several values for one entry are separate records, joined by “and”; a condition that tells them apart may be missing. Equal entries are not always repeated. Where two headings read alike, the source gives them in different places. No end group written: not given here.

Assays:
Test in all cases: biochemical
Assay type in all cases: binding
HLA-A*3002 = HLA-A*3002 (Homo sapiens, UniProt P04439, D101N/D140H/D185E/E176R/F33S/G80R/H175R/K168Q/Q94H/R138E/R41S/V100E)
HLA-A*0101 = HLA-A*0101 (Homo sapiens, UniProt P04439, A114D/A174V/A182V/D101N/D185E/E176A/E190D/L180R/Q94H/R68K/S129P/T187R/V100A/V91M/W191G)
HLA-B*4002 = HLA-B*4002 (Homo sapiens, UniProt P01889, A65T/A93T/A95T/D138N/D201E/D98Y/E176V/E204Q/E69K/K202T/N87E/Q56L/Q94N/R180L/S48T/Y33H/Y91S)
HLA-B*4403 = HLA-B*4403 (Homo sapiens, UniProt P01889, A223V/A65T/A93T/A95T/D201E/D98Y/E176V/E187L/E204Q/E69K/G107R/H137Y/K202T/L105A/L119I/N104T/N87E/Q56L/Q94N/R106L/R155S/R180L/S101N/S121R/S35A/S48T/T118I/V36M/W191S/Y140D/Y91S)
HLA-B*1801 = HLA-B*1801 (Homo sapiens, UniProt P01889, A329T/A93T/A95T/C349S/D201E/D54G/D98Y/E176V/E187T/E204Q/E69T/K202T/Q94N/R155S/R180L/S121R/V306I/Y140S/Y195H/Y33H/Y91S)
HLA-B*4402 = HLA-B*4402 (Homo sapiens, UniProt P01889, A223V/A65T/A93T/A95T/D201E/D98Y/E176V/E187L/E204Q/E69K/G107R/H137Y/K202T/L105A/L119I/N104T/N87E/Q56L/Q94N/R106L/R155S/R180D/S101N/S121R/S35A/S48T/T118I/V36M/W191S/Y140D/Y91S)
HLA-B*4501 = HLA-B*4501 (Homo sapiens, UniProt P01889, A329T/A65T/A93T/A95T/C349S/D138N/D201E/D98Y/E176V/E187L/E204Q/E69K/H137Y/K202T/L119W/N87E/Q56L/Q94N/R155S/R180D/S121R/S35A/S48T/V127L/V306I/V36M/W191S/Y140L/Y33H/Y91S)
HLA-B*4001 = HLA-B*4001 (Homo sapiens, UniProt P01889, A65T/A93T/A95T/D138N/D98Y/E176V/E69K/N87E/Q56L/Q94N/R180L/S121R/S35A/S48T/T167S/V36M/W171L/Y33H/Y91S)
[1] = Binding affinity to A*3002 (expressed as an IC50)
[2] = Binding affinity to A*0101 (expressed as an IC50)
[3] = read-out: Binding affinity to A*0101 (expressed as an IC50)

What does the source list for KTGPGPGHLY?
IC50 (HLA-A*3002; [1]): 1.3 nM; IC50 (HLA-A*0101; [2]): 29 nM

Which IC50 (HLA-A*3002) does the source give for ETRHYCYSLY here?
The IC50 was 10 nM.

What about the IC50 (HLA-A*0101; [2]) of the same compound?
The IC50 was 43 nM.

How did the IC50 (HLA-A*0101; [2]) turn out when ITEYRHYQY was run?
Its IC50 is 90 nM.

With NVDQQNIDMY as the compound, how does the IC50 (HLA-A*0101; [3]) read?
The IC50 was 47 nM.

How did the IC50 (HLA-B*4002) turn out when DENLWVTVY was run?
Its IC50 is 41100 nM.

What about the IC50 (HLA-B*4403) of the same compound?
The IC50 was 988 nM.

What about the IC50 (HLA-B*1801) of the same compound?
Its IC50 is 26 nM.

And the IC50 (HLA-B*4402)?
The IC50 was 4590 nM.

And the IC50 (HLA-B*4501; read-out: B*4501)?
Its IC50 is 49000 nM.

And the IC50 (HLA-B*4001)?
The IC50 was greater than 72700 nM.

How did the IC50 (HLA-B*4002) turn out when AETLWVTVY was run?
The IC50 was 198 nM.

And the IC50 (HLA-B*4403)?
The IC50 was 221 nM.

What about the IC50 (HLA-B*1801) of the same compound?
The IC50 was 199 nM.

What about the IC50 (HLA-B*4402) of the same compound?
The IC50 was 501 nM.

What about the IC50 (HLA-B*4501) of the same compound?
The IC50 was 774 nM.

Which results are given for AENLWVTPY?
IC50 (HLA-B*4403): 44 nM; IC50 (HLA-B*1801): 41 nM; IC50 (HLA-B*4402): 127 nM; IC50 (HLA-B*4501): 122 nM; IC50 (HLA-B*4001): 274 nM

Which IC50 (HLA-B*4002) does the source give for AENKWVTVY here?
The IC50 was 534 nM.

And the IC50 (HLA-B*4403)?
Its IC50 is 540 nM.

What about the IC50 (HLA-B*1801) of the same compound?
Its IC50 is 781 nM.

What about the IC50 (HLA-B*4402) of the same compound?
Its IC50 is 294 nM.

What about the IC50 (HLA-B*4501) of the same compound?
Its IC50 is 297 nM.

And the IC50 (HLA-B*4001)?
The IC50 was 11300 nM.

`CC(C)C[C@H](NC(=O)[C@H](C)N)C(=O)N[C@@H](Cc1ccccc1)C(=O)N[C@@H](CCC(N)=O)C(=O)N[C@@H](CCC(=O)O)C(=O)N[C@@H](Cc1ccc(O)cc1)C(=O)N[C@@H](CCC(N)=O)C(=O)N[C@@H](CS)C(=O)N[C@@H](Cc1ccc(O)cc1)C(=O)O` was tested. Which IC50 (HLA-A*0101; [2]) did it give?
Its IC50 is greater than 42000 nM.

Which IC50 (HLA-A*0101; [2]) does the source give for AADAAAAKY here?
Its IC50 is 20 nM.

How did the IC50 (HLA-B*4002) turn out when AENLNVTVY was run?
Its IC50 is 3540 nM.

And the IC50 (HLA-B*4403)?
The IC50 was 358 nM.

What about the IC50 (HLA-B*1801) of the same compound?
Its IC50 is 198 nM.

And the IC50 (HLA-B*4402)?
Its IC50 is 447 nM.

And the IC50 (HLA-B*4501)?
Its IC50 is 2440 nM.

What about the IC50 (HLA-B*4001) of the same compound?
The IC50 was 564 nM.

How did the IC50 (HLA-A*3002) turn out when `CC[C@H](C)[C@H](NC(=O)[C@@H](NC(=O)[C@H](CC(C)C)NC(=O)[C@H](CC(=O)O)NC(=O)[C@@H](NC(=O)[C@@H](N)Cc1ccccc1)[C@@H](C)O)[C@@H](C)O)C(=O)N[C@H](C(=O)N[C@@H](Cc1ccc(O)cc1)C(=O)O)C(C)C` was run?
The IC50 was 39000 nM.

What about the IC50 (HLA-A*0101; [2]) of the same compound?
Its IC50 is 16 nM and 34 nM.

Which IC50 (HLA-A*3002) does the source give for ATDNYYIVTY here?
The IC50 was 65 nM.

What about the IC50 (HLA-A*0101; [2]) of the same compound?
Its IC50 is 7.4 nM and 19 nM.

Which IC50 (HLA-A*3002) does the source give for ATELHPEYY here?
Its IC50 is 1730 nM.

What about the IC50 (HLA-A*0101; [2]) of the same compound?
The IC50 was 43 nM.

KTYGPGPGLY was tested. Which IC50 (HLA-A*3002; [1]) did it give?
Its IC50 is 0.96 nM.

And the IC50 (HLA-A*0101; [2])?
The IC50 was 5.7 nM.

With SEAIYTFQF as the compound, how does the IC50 (HLA-B*4403; B*4403) read?
Its IC50 is 20 nM.

And the IC50 (HLA-B*1801; B*1801)?
Its IC50 is 5.7 nM.

And the IC50 (HLA-B*4402; B*4402)?
The IC50 was 4.8 nM.

And the IC50 (HLA-B*4501; B*4501)?
Its IC50 is 293 nM.

And the IC50 (HLA-B*4001; B*4001)?
Its IC50 is 967 nM.

Which IC50 (HLA-A*0101; [2]) does the source give for ISEYRHYQY here?
The IC50 was 40 nM.

For LSGPGPGAIFY, which IC50 (HLA-A*0101; [3]) is on record?
Its IC50 is 25 nM.

For AEIPKLAYF, which IC50 (HLA-B*4002; B*4002) is on record?
The IC50 was 5.6 nM.

And the IC50 (HLA-B*4403; B*4403)?
Its IC50 is 57 nM.

What about the IC50 (HLA-B*1801; B*1801) of the same compound?
Its IC50 is 1640 nM.

What about the IC50 (HLA-B*4402; B*4402) of the same compound?
Its IC50 is 229 nM.

And the IC50 (HLA-B*4501; B*4501)?
Its IC50 is 608 nM.

And the IC50 (HLA-B*4001; B*4001)?
Its IC50 is 57 nM.

AENLWVTVE was tested. Which IC50 (HLA-B*4002) did it give?
Its IC50 is 1360 nM.

And the IC50 (HLA-B*4403)?
Its IC50 is 2570 nM.

And the IC50 (HLA-B*1801)?
Its IC50 is greater than 258000 nM.

What about the IC50 (HLA-B*4402) of the same compound?
Its IC50 is 8910 nM.

What about the IC50 (HLA-B*4501) of the same compound?
Its IC50 is 246 nM.

What about the IC50 (HLA-B*4001) of the same compound?
The IC50 was 3890 nM.

With SEAPKYAIL as the compound, how does the IC50 (HLA-B*4002; B*4002) read?
The IC50 was 7.8 nM.

What about the IC50 (HLA-B*4403; B*4403) of the same compound?
Its IC50 is 2260 nM.

And the IC50 (HLA-B*1801; B*1801)?
Its IC50 is 2260 nM.

What about the IC50 (HLA-B*4402; B*4402) of the same compound?
The IC50 was 762 nM.

What about the IC50 (HLA-B*4501; B*4501) of the same compound?
Its IC50 is 479 nM.

For AENLWVTVY, which IC50 (HLA-B*4002; B*4002) is on record?
Its IC50 is 90 nM and 547 nM.

And the IC50 (HLA-B*4403; B*4403)?
Its IC50 is 43 nM and 284 nM.

What about the IC50 (HLA-B*1801; B*1801) of the same compound?
Its IC50 is 51 nM and 155 nM and 122 nM.

What about the IC50 (HLA-B*4402; B*4402) of the same compound?
Its IC50 is 66 nM and 308 nM.

And the IC50 (HLA-B*4501; B*4501)?
The IC50 was 68 nM and 200 nM and 301 nM.

And the IC50 (HLA-B*4001; B*4001)?
The IC50 was 1360 nM and 1580 nM.

Which IC50 (HLA-B*4002; B*4002) does the source give for EEKPRTLHDL here?
The IC50 was 34000 nM.

And the IC50 (HLA-B*4403; B*4403)?
The IC50 was 30000 nM.

And the IC50 (HLA-B*1801; B*1801)?
The IC50 was greater than 81600 nM.

What about the IC50 (HLA-B*4402; B*4402) of the same compound?
Its IC50 is 15200 nM.

What about the IC50 (HLA-B*4501; B*4501) of the same compound?
The IC50 was 419 nM.

And the IC50 (HLA-B*4001; B*4001)?
The IC50 was 36200 nM.

What does the source list for AENLWVTTY?
IC50 (HLA-B*4002): 191 nM; IC50 (HLA-B*4403): 26 nM; IC50 (HLA-B*1801): 28 nM; IC50 (HLA-B*4402): 37 nM; IC50 (HLA-B*4501): 48 nM; IC50 (HLA-B*4001): 280 nM

For `CC[C@H](C)[C@H](NC(=O)[C@H](CO)NC(=O)[C@H](Cc1c[nH]cn1)NC(=O)[C@@H](NC(=O)[C@H](CO)NC(=O)[C@@H](N)CC(C)C)C(C)C)C(=O)N[C@@H](CCC(N)=O)C(=O)N[C@@H](CC(N)=O)C(=O)N[C@@H](CC(=O)O)C(=O)N[C@@H](Cc1ccc(O)cc1)C(=O)O`, which IC50 (HLA-A*0101; [2]) is on record?
Its IC50 is 279 nM.

With DLWYYHTQGYY as the compound, how does the IC50 (HLA-A*0101; [3]) read?
Its IC50 is 5880 nM.

Which results are given for AENLWVTVM?
IC50 (HLA-B*4002): 6.1 nM; IC50 (HLA-B*4403): 35 nM; IC50 (HLA-B*1801): 508 nM; IC50 (HLA-B*4402): 195 nM; IC50 (HLA-B*4501): 50 nM; IC50 (HLA-B*4001): 13 nM

QEILDLWV was tested. Which IC50 (HLA-B*4002; B*4002) did it give?
Its IC50 is 1720 nM.

And the IC50 (HLA-B*4403; B*4403)?
The IC50 was 5920 nM.

And the IC50 (HLA-B*1801; B*1801)?
Its IC50 is greater than 22800 nM.

And the IC50 (HLA-B*4402; B*4402)?
The IC50 was greater than 81400 nM.

And the IC50 (HLA-B*4501; B*4501)?
Its IC50 is 5500 nM.

Which IC50 (HLA-A*0101; [2]) does the source give for ATSNYYIVTY here?
The IC50 was 428 nM.
